Values quoted from earlier work as cited in patent publication US8338423B2, “Compositions for the treatment of hyperphenylalaninemia” (Universidad de Zaragoza, priority 2007, dated 2012).

Molecular target: T1, wt-PAH (Homo sapiens, UniProt P00439)
T1 construct: made in house; host or cells: E. coli
T1 sequence (P00439 1-452): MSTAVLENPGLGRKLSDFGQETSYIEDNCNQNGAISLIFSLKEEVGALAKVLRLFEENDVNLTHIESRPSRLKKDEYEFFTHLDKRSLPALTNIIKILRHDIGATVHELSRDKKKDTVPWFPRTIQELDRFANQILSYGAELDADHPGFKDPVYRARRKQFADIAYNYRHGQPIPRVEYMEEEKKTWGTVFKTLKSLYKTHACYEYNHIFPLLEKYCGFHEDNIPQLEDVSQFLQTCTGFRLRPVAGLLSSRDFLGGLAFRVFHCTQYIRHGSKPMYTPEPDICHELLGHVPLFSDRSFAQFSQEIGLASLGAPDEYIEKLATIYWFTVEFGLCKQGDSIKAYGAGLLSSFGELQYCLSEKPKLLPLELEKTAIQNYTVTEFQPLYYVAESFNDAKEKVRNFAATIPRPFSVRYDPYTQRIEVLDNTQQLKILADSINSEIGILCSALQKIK
Details: comparison values; read-out: Kl of likely physiological inhibitors of PAH; cited from earlier work

| SMILES | Ki [µM] |
| --- | --- |
| C[C@H](O)[C@H](O)C1=Nc2c(nc(N)[nH]c2=O)NC1 [BH2] | ~17 |
| CC(O)C(O)C1CNc2c(nc(N)[nH]c2=O)N1 (stereo not drawn) [Compound 7S-BH4] | 2 to 5 |
